Where a name gives a salt, the structure may show the parent alone.
| melting point | SMILES |
| --- | --- |
| 233 to 237 °C | CC(C)(O)c1cnn2c(-c3ccc(F)c(-c4ccncc4)c3)cnc2n1 [Example 15, 2-{7-[4-Fluoro-3-(pyridin-4-yl)phenyl]imidazo[1,2-b][1,2,4]triazin-3-yl}propan-2-ol] |
| 166 °C | CC(C)(O)c1cnn2c(-c3cccc(-c4ccccc4C#N)c3)cnc2n1 [Example 22, 3′-[3-(1-Hydroxy-1-methylethyl)imidazo[1,2-b][1,2,4]triazin-7-yl]biphenyl-2-carbonitrile] |
| 199 to 200 °C | CC(C)(O)c1cnn2c(-c3ccc(F)c(-c4cccnc4)c3)cnc2n1 [Example 14, 2-{7-[4-Fluoro-3-(pyridin-3-yl)phenyl]imidazo[1,2-b][1,2,4]triazin-3-yl}propan-2-ol] |
| 221 to 223 °C | CC(C)(O)c1cnn2c(-c3cccc(-c4ccncc4)c3F)cnc2n1 [Example 19, 2-{7-[2-Fluoro-3-(pyridin-4-yl)phenyl]imidazo[1,2-b][1,2,4]triazin-3-yl}propan-2-ol] |
| 187 °C | CC(C)(O)c1cnn2c(-c3ccc(F)c(-c4ccccc4C#N)c3)cnc2n1 [Example 16, 2′-Fluoro-5′-[3-(1-hydroxy-1-methylethyl)imidazo[1,2-b][1,2,4]triazin-7-yl]biphenyl-2-carbonitrile] |
| 187 to 188 °C | CC(C)(F)c1cnn2c(-c3ccc(F)c(-c4c(F)cccc4C#N)c3)cnc2n1 [Example 25, 6,2′-Difluoro-5′-[3-(1-fluoro-1-methylethyl)imidazo[1,2-b][1,2,4]triazin-7-yl]biphenyl-2-carbonitrile] |
| 222 °C | CC(C)(O)c1cnn2c(-c3ccc(F)c(-c4ccc(F)cn4)c3)cnc2n1 [Example 29, 2-{7-[4-Fluoro-3-(5-fluoropyridin-2-yl)phenyl]imidazo[1,2-b][1,2,4]triazin-3-yl}propan-2-ol] |

More lines, now with the values behind:

| SMILES | melting point |
| --- | --- |
| Cc1cnn2c(-c3cccc(-c4ccccc4C#N)c3)cnc2n1 [Example 1, 3′-(3-methylimidazo[1,2-b][1,2,4]triazin-7-yl)biphenyl-2-carbonitrile] | 211 to 216 °C |
| N#Cc1ccccc1-c1cccc(-c2cnc3nc(C(F)(F)F)cnn23)c1F [Example 7, 2′-Fluoro-3′-(3-trifluoromethylimidazo[1,2-b][1,2,4]triazin-7-yl)biphenyl-2-carbonitrile] | 167 to 168 °C |
| N#Cc1ccccc1-c1cc(-c2cnc3nccnn23)ccc1F [Example 5, 2′-Fluoro-5′-(imidazo[1,2-b][1,2,4]triazin-7-yl)biphenyl-2-carbonitrile] | 211 to 215 °C |
| N#Cc1ccccc1-c1cc(-c2cnc3nc(C(F)(F)F)cnn23)ccc1F [Example 2, 2′-Fluoro-5′-(3-trifluoromethylimidazo[1,2-b][1,2,4]triazin-7-yl)biphenyl-2-carbonitrile] | 168 to 174 °C |
| Fc1ccc(-c2cnc3nc(C(F)(F)F)cnn23)cc1-c1ccccn1 [Example 6, 7-[4-Fluoro-3-(pyridin-2-yl)phenyl]-3-trifluoromethylimidazo[1,2-b][1,2,4]triazine] | 128 to 131 °C |
| CC(C)(F)c1cnn2c(-c3ccc(F)c(-c4cccnc4)c3)cnc2n1 (as salt: hydrochloride) [Example 3, 3-(1-Fluoro-1-methylethyl)-7-[4-fluoro-3-(pyridin-3-yl)phenyl]imidazo[1,2-b][1,2,4]triazine] | 113 to 126 °C |

— patent publication US6936608B2, “Imidazo-triazine derivatives as ligands for GABA receptors” (Merck Sharp & Dohme Ltd., priority 2000, dated 2005)
